Tested on: 743489-274-T-PDC complex spheroid growth
Experiment: Anticancer human tumor 743489-274-T-PDC patient-derived renal cell carcinoma cell line growth inhibition [AhR]
Conditions: for IC50: curve of first compound; for viability, T/C: stronger effect = lower value
Summary of the method: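 Spheroids combined tumor cells with HUVEC endothelial cells and human MSCs as stroma. AhR antagonists were paired with standard or investigational drugs, each dosed in half-log steps down from near clinical Cmax, or from 10 microM where Cmax was unknown.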

[1] = second compound 0.1 µM, first compound 0.000949 µM
[2] = second compound 0.1 µM, first compound 0.003 µM
[3] = second compound 0.1 µM, first compound 0.00949 µM
[4] = second compound 0.1 µM, first compound 0.03 µM
[5] = second compound 0.1 µM, first compound 0.0949 µM
[6] = second compound 0.1 µM, first compound 0.3 µM
[7] = second compound 0.316 µM, first compound 0.000949 µM
[8] = second compound 0.316 µM, first compound 0.003 µM
[9] = second compound 0.316 µM, first compound 0.00949 µM
[10] = second compound 0.316 µM, first compound 0.03 µM
[11] = second compound 0.316 µM, first compound 0.0949 µM
[12] = second compound 0.316 µM, first compound 0.3 µM
[13] = second compound 1 µM, first compound 0.000949 µM
[14] = second compound 1 µM, first compound 0.003 µM
[15] = second compound 1 µM, first compound 0.00949 µM
[16] = second compound 1 µM, first compound 0.03 µM
[17] = second compound 1 µM, first compound 0.0949 µM
[18] = second compound 1 µM, first compound 0.3 µM
[19] = second compound 3.16 µM, first compound 0.000949 µM
[20] = second compound 3.16 µM, first compound 0.003 µM
[21] = second compound 3.16 µM, first compound 0.00949 µM
[22] = second compound 3.16 µM, first compound 0.03 µM
[23] = second compound 3.16 µM, first compound 0.0949 µM
[24] = second compound 3.16 µM, first compound 0.3 µM
[25] = second compound 10 µM, first compound 0.000949 µM
[26] = second compound 10 µM, first compound 0.003 µM
[27] = second compound 10 µM, first compound 0.00949 µM
[28] = second compound 10 µM, first compound 0.03 µM
[29] = second compound 10 µM, first compound 0.0949 µM
[30] = second compound 10 µM, first compound 0.3 µM
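Also: spheroids exposed to agents for 7 days before readout.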
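For viability, T/C in this document: 100% = DMSO vehicle control wells.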

CC(C)CC(NC(=O)C(Cc1ccccc1)NC(=O)c1cnccn1)B(O)O (stereo not given) + Cc1cncc(-c2nc(NCCc3c[nH]c4ccccc34)c3ncn(C(C)C)c3n2)c1
IC50 (second compound 0.1 µM): 0.0493 µM | IC50 (second compound 0.316 µM): 0.0272 µM | IC50 (second compound 1 µM): 0.021 µM | IC50 (second compound 3.16 µM): 0.0209 µM | IC50 (second compound 10 µM): 0.0139 µM | viability, T/C [1]: 94.6% | viability, T/C [2]: 96.3% | viability, T/C [3]: 106% | viability, T/C [4]: 75.8% | viability, T/C [5]: 16.6% | viability, T/C [6]: 11.4% | viability, T/C [7]: 98.8% | viability, T/C [8]: 96.9% | viability, T/C [9]: 108% | viability, T/C [10]: 45.2% | viability, T/C [11]: 18.4% | viability, T/C [12]: 10.7% | viability, T/C [13]: 99.8% | viability, T/C [14]: 103% | viability, T/C [15]: 93% | viability, T/C [16]: 30.3% | viability, T/C [17]: 17.6% | viability, T/C [18]: 8.63% | viability, T/C [19]: 107% | viability, T/C [20]: 107% | viability, T/C [21]: 102% | viability, T/C [22]: 25.9% | viability, T/C [23]: 13.1% | viability, T/C [24]: 4.96% | viability, T/C [25]: 124% | viability, T/C [26]: 113% | viability, T/C [27]: 73.2% | viability, T/C [28]: 2.6% | viability, T/C [29]: 1.14% | viability, T/C [30]: 0.75%

CCc1c2c(nc3ccc(O)cc13)-c1cc3c(c(=O)n1C2)COC(=O)[C@]3(O)CC + Cc1cncc(-c2nc(NCCc3c[nH]c4ccccc34)c3ncn(C(C)C)c3n2)c1
IC50 (second compound 0.1 µM): > 0.3 µM | IC50 (second compound 0.316 µM): > 0.3 µM | IC50 (second compound 1 µM): > 0.3 µM | IC50 (second compound 3.16 µM): > 0.3 µM | IC50 (second compound 10 µM): > 0.3 µM | viability, T/C [1]: 106% | viability, T/C [2]: 103% | viability, T/C [3]: 97.1% | viability, T/C [4]: 89.1% | viability, T/C [5]: 79.4% | viability, T/C [6]: 76.6% | viability, T/C [7]: 98.8% | viability, T/C [8]: 95% | viability, T/C [9]: 98.5% | viability, T/C [10]: 82.2% | viability, T/C [11]: 69.5% | viability, T/C [12]: 64.6% | viability, T/C [13]: 102% | viability, T/C [14]: 106% | viability, T/C [15]: 110% | viability, T/C [16]: 79.9% | viability, T/C [17]: 94.8% | viability, T/C [18]: 66.6% | viability, T/C [19]: 113% | viability, T/C [20]: 102% | viability, T/C [21]: 98.6% | viability, T/C [22]: 80.7% | viability, T/C [23]: 73.1% | viability, T/C [24]: 73.9% | viability, T/C [25]: 131% | viability, T/C [26]: 135% | viability, T/C [27]: 128% | viability, T/C [28]: 102% | viability, T/C [29]: 95% | viability, T/C [30]: 68.4%

Nc1ccccc1NC(=O)c1ccc(CNC(=O)OCc2cccnc2)cc1 + Cc1cncc(-c2nc(NCCc3c[nH]c4ccccc34)c3ncn(C(C)C)c3n2)c1
IC50 (second compound 0.1 µM): 4.64 µM | IC50 (second compound 0.316 µM): 3.12 µM | IC50 (second compound 1 µM): 2.4 µM | IC50 (second compound 3.16 µM): 6.83 µM | IC50 (second compound 10 µM): 9.62 µM | viability, T/C (second compound 0.1 µM, first compound 0.0316 µM): 104% | viability, T/C (second compound 0.1 µM, first compound 0.1 µM): 92.7% | viability, T/C (second compound 0.1 µM, first compound 0.316 µM): 86.5% | viability, T/C (second compound 0.1 µM, first compound 1 µM): 77.7% | viability, T/C (second compound 0.1 µM, first compound 3.16 µM): 54.2% | viability, T/C (second compound 0.1 µM, first compound 10 µM): 36.6% | viability, T/C (second compound 0.316 µM, first compound 0.0316 µM): 92.2% | viability, T/C (second compound 0.316 µM, first compound 0.1 µM): 93.1% | viability, T/C (second compound 0.316 µM, first compound 0.316 µM): 89.4% | viability, T/C (second compound 0.316 µM, first compound 1 µM): 74% | viability, T/C (second compound 0.316 µM, first compound 3.16 µM): 50.1% | viability, T/C (second compound 0.316 µM, first compound 10 µM): 36.3% | viability, T/C (second compound 1 µM, first compound 0.0316 µM): 88.5% | viability, T/C (second compound 1 µM, first compound 0.1 µM): 84.1% | viability, T/C (second compound 1 µM, first compound 0.316 µM): 87.2% | viability, T/C (second compound 1 µM, first compound 1 µM): 73.8% | viability, T/C (second compound 1 µM, first compound 3.16 µM): 42.5% | viability, T/C (second compound 1 µM, first compound 10 µM): 29.9% | viability, T/C (second compound 3.16 µM, first compound 0.0316 µM): 95.5% | viability, T/C (second compound 3.16 µM, first compound 0.1 µM): 91.5% | viability, T/C (second compound 3.16 µM, first compound 0.316 µM): 88.7% | viability, T/C (second compound 3.16 µM, first compound 1 µM): 78.5% | viability, T/C (second compound 3.16 µM, first compound 3.16 µM): 61.3% | viability, T/C (second compound 3.16 µM, first compound 10 µM): 44.3% | viability, T/C (second compound 10 µM, first compound 0.0316 µM): 102% | viability, T/C (second compound 10 µM, first compound 0.1 µM): 102% | viability, T/C (second compound 10 µM, first compound 0.316 µM): 106% | viability, T/C (second compound 10 µM, first compound 1 µM): 91.3% | viability, T/C (second compound 10 µM, first compound 3.16 µM): 84.6% | viability, T/C (second compound 10 µM, first compound 10 µM): 48.2%
